Assays:
[1] = system: mushroom tyrosinase (EC 1.14.18.1); experiment: Mushroom tyrosinase inhibition assay, L-Dopa as substrate (diphenolase activity, dopachrome at 490 nm); assay type: biochemical; conditions: for % Inhibition at 80 µM: 80 µM compound; for % Inhibition at 80 µM / % Inhibition at 30 µM: mean of three independent experiments; for % Inhibition at 30 µM: 30 µM compound
Protocol: We conducted the assay of mushroom tyrosinase (EC 1.14.18.1) utilizing L-Dopa as the substrate, as previously described, with minor adaptations. We employed a spectrophotometric technique to assess the enzyme's diphenolase activity, observing dopachrome formation at 490 nm. […] In a 96-well microplate, 10 µl of the test samples were combined with 140 µl of 50 mM phosphate buffer (pH = 6.8). Subsequently, 20 µl of tyrosinase (273 U mL^−1) was introduced. Following a pre-incubation period of 20 min at 28 °C, 20 µl of L-Dopa solution (resulting in a final concentration of 0.7 mM) was added to the mixture. Following a 10-min incubation, the absorbance of the samples was measured. The inhibitory activity of the tested compounds was stated as IC50. The ratio percentage of inhibition was calculated according to the equation below: Inhibition%=100Abscontrol-Abscompound/Abscontrol

[2] = molecular target: tyrosinase; conditions: Fig. 1; cited from earlier work
[3] = system: mushroom tyrosinase; experiment: Kinetic study of tyrosinase inhibition (Lineweaver-Burk plots); assay type: biochemical
Description: Mechanism and type of inhibition were elucidated through kinetic investigations. […] Lineweaver–Burk plots, depicting 1/V against 1/[S], were constructed to illustrate the inhibition of tyrosinase by 6b across varying concentrations of both 6b and L-Dopa, the substrate. In this context, Km represents the Michaelis–Menten constant, while Vmax signifies the maximum reaction velocity.
Based on these findings, it can be inferred that the inhibitory effect of compound 6b is competitive.
The inhibitor concentrations employed ranged from 2 to 20 μM, while the substrate (L-Dopa) concentrations in the rane of 0.1 mM to 1.5 mM through all kinetic experiments. The pre-incubation and measurement durations followed the protocol outlined in the mushroom tyrosinase inhibition assay. The maximum initial velocity was ascertained from the initial linear segment of absorbance within a 10-min window following the introduction of L-Dopa, with measurements taken at 1-min intervals. Utilizing the Lineweaver–Burk plot technique, we calculated the Michaelis constant (Km) and the tyrosinase activity's maximal velocity (Vmax). This plot involved various L-Dopa concentrations as the substrate. For assessing the enzyme's inhibition type, we employed Lineweaver–Burk plots featuring the reciprocal of velocities (1/V) plotted against the reciprocal of substrate concentrations (1/[S] mM^−1).

Molecule	% Inhibition at 80 µM [1] [%]	melting point [°C]	further results
2-Amino-4-(3-((para-tolyl)oxy)phenyl)-6-(hydroxymethyl)-8-oxo-4,8-dihydropyrano[3,2-b]pyran-3-carbonitrile [6j]	20.45 ± 4.54	–	tyrosinase inhibitory activity (in words) [1]: without any activity
Nn1c(SCc2cc(=O)c(O)co2)nnc1-c1ccc(Cl)cc1 [1a]	–	–	IC50 [2]: 4.5 µM
O=c1cc(Cc2cn(Cc3cccc4ccccc34)nn2)occ1O [1b]	–	–	IC50 [2]: 0.06 µM
O=c1cc(/C=C/c2cc(=O)c(O)co2)occ1O [1c]	–	–	IC50 [2]: 30.6 µM
O=c1cc(CSc2nnc(-c3ccccc3)n2NCc2ccc(O)c(O)c2)occ1O [1d]	–	–	IC50 [2]: 1.35 µM
CCOC(=O)C1=C(N)Oc2c(ccc3ccccc23)C1c1cccc(Cl)c1 (centres unmarked) [1e]	–	–	IC50 [2]: 34.1 µM
CC1(C)CC(=O)C2=C(C1)Oc1ncn3ncnc3c1C2c1ccccc1 (centres unmarked) [1f]	–	–	Inhibition percentage [2]: 78%
N#CC1=C(N)Oc2c(oc(CO)cc2=O)C1c1ccc(OCc2ccccc2)cc1 (centres unmarked) [6a, 2-Amino-4-(4-(benzyloxy)phenyl)-6-(hydroxymethyl)-8-oxo-4,8-dihydropyrano[3,2-b]pyran-3-carbonitrile]	47.90 ± 3.90	221 to 224	tyrosinase inhibitory activity (in words) [1]: inactive
N#CC1=C(N)Oc2c(oc(CO)cc2=O)C1c1ccc(OCc2ccc(F)cc2)cc1 (centres unmarked) [6b, 2-Amino-4-(4-((4-fluorobenzyl)oxy)phenyl)-6-(hydroxymethyl)-8-oxo-4,8-dihydropyrano[3,2-b]pyran-3-carbonitrile]	89.27 ± 2.59	227 to 230	IC50 [1]: 7.69 ± 1.99 µM; % Inhibition at 30 µM [1]: 79.81 ± 6.18%; type of inhibition ([3]; Lineweaver-Burk plot, Vmax constant, Km rising): competitive; Ki ([3]; secondary plot of Km vs concentration of inhibitor, L-Dopa 0.1-1.5 mM, read-out: inhibition constant Ki): 7.57 µM
N#CC1=C(N)Oc2c(oc(CO)cc2=O)C1c1ccc(OCc2ccc(Cl)cc2)cc1 (centres unmarked) [6c, 2-Amino-4-(4-((4-chlorobenzyl)oxy)phenyl)-6-(hydroxymethyl)-8-oxo-4,8-dihydropyrano[3,2-b]pyran-3-carbonitrile]	50.01 ± 4.34	236 to 239	IC50 [1]: 79.2 ± 3.3 µM; % Inhibition at 30 µM [1]: 44.09 ± 2.94%
N#CC1=C(N)Oc2c(oc(CO)cc2=O)C1c1ccc(OCc2ccc(Br)cc2)cc1 (centres unmarked) [6d, 2-Amino-4-(4-((4-bromobenzyl)oxy)phenyl)-6-(hydroxymethyl)-8-oxo-4,8 dihydropyrano[3,2-b]pyran-3-carbonitrile]	66.36 ± 3.64	214 to 216	IC50 [1]: 34 ± 2.53 µM; % Inhibition at 30 µM [1]: 48.86 ± 3.53%
Cc1ccc(COc2ccc(C3C(C#N)=C(N)Oc4c3oc(CO)cc4=O)cc2)cc1 (centres unmarked) [6e, 2-Amino-6-(hydroxymethyl)-4-(4-((4-methylbenzyl)oxy)phenyl)-8-oxo-4,8-dihydropyrano[3,2-b]pyran-3-carbonitrile]	48.63 ± 6.37	215 to 218	–
N#CC1=C(N)Oc2c(oc(CO)cc2=O)C1c1cccc(OCc2ccccc2)c1 (centres unmarked) [6f, 2-Amino-4-(3-(benzyloxy)phenyl)-6-(hydroxymethyl)-8-oxo-4,8-dihydropyrano[3,2-b]pyran-3-carbonitrile]	42.27 ± 2.72	235 to 238	tyrosinase inhibitory activity (in words) [1]: no inhibitory activity
N#CC1=C(N)Oc2c(oc(CO)cc2=O)C1c1cccc(OCc2ccc(F)cc2)c1 (centres unmarked) [6g, 2-Amino-4-(3-((4-fluorobenzyl)oxy)phenyl)-6-(hydroxymethyl)-8-oxo-4,8-dihydropyrano[3,2-b]pyran-3-carbonitrile]	88.63 ± 6.36	239 to 242	IC50 [1]: 9.72 ± 2.47 µM; % Inhibition at 30 µM [1]: 77.95 ± 4.54%
N#CC1=C(N)Oc2c(oc(CO)cc2=O)C1c1cccc(OCc2ccc(Cl)cc2)c1 (centres unmarked) [6h, 2-Amino-4-(3-((4-chlorobenzyl)oxy)phenyl)-6-(hydroxymethyl)-8-oxo-4,8-dihydropyrano[3,2-b]pyran-3-carbonitrile]	67.95 ± 4.54	232 to 236	IC50 [1]: 10.7 ± 4.96 µM; % Inhibition at 30 µM [1]: 65.90 ± 5.09%
N#CC1=C(N)Oc2c(oc(CO)cc2=O)C1c1cccc(OCc2ccc(Br)cc2)c1 (centres unmarked) [6i, 2-Amino-4-(3-((4-bromobenzyl)oxy)phenyl)-6-(hydroxymethyl)-8-oxo-4,8-dihydropyrano[3,2-b]pyran-3-carbonitrile]	67.72 ± 7.27	236 to 238	IC50 [1]: 15.3 ± 3.17 µM; % Inhibition at 30 µM [1]: 59.54 ± 5.44%
COc1cc(C2C(C#N)=C(N)Oc3c2oc(CO)cc3=O)ccc1OCc1ccccc1 (centres unmarked) [6k, 2-Amino-4-(4-(benzyloxy)-3-methoxyphenyl)-6-(hydroxymethyl)-8-oxo-4,8 dihydropyrano[3,2-b]pyran-3-carbonitrile]	10.25 ± 3.48	–	–
COc1cc(C2C(C#N)=C(N)Oc3c2oc(CO)cc3=O)ccc1OCc1ccc(F)cc1 (centres unmarked) [6l, 2-Amino-4-(4-((4-fluorobenzyl)oxy)-3-methoxyphenyl)-6-(hydroxymethyl)-8-oxo-4,8-dihydropyrano[3,2-b]pyran-3-carbonitrile]	49.09 ± 4.91	–	–
COc1cc(C2C(C#N)=C(N)Oc3c2oc(CO)cc3=O)ccc1OCc1ccc(Cl)cc1 (centres unmarked) [6m, 2-Amino-4-(4-((4-cholorobenzyl)oxy)-3-methoxyphenyl)-6-(hydroxymethyl)-8-oxo-4,8-dihydropyrano[3,2-b]pyran-3-carbonitrile]	49.31 ± 6.12	–	–
COc1cc(C2C(C#N)=C(N)Oc3c2oc(CO)cc3=O)ccc1OCc1ccc(Br)cc1 (centres unmarked) [6n, 2-Amino-4-(4-((4-boromobenzyl)oxy)-3-methoxyphenyl)-6-(hydroxymethyl)-8-oxo-4,8-dihydropyrano[3,2-b]pyran-3-carbonitrile]	21.36 ± 3.63	–	–
COc1cc(C2C(C#N)=C(N)Oc3c2oc(CO)cc3=O)ccc1OCc1ccc(C)cc1 (centres unmarked) [6o, 2-Amino-6-(hydroxymethyl)-4-(3-methoxy-4-((4-methylbenzyl)oxy)phenyl)-8-oxo-4,8 dihydropyrano[3,2-b]pyran-3-carbonitrile]	44.31 ± 4.18	–	–

— article PMC10885651 (BMC Chemistry, 2024)
